Assays:
[1] = tested on: MNFS60 (murine AML cells); experiment: Cell viability assay in MCSF dependent MNFS60 cells (Cell Titer Glo); type: cell-based; details: Mus musculus; tested at about 1 μM; MCSF 10 ng/mL, 72 hrs; read-out: CPEC50 MNFS60MCSF percent inhibition
Description: Cell viability was assessed by Cell Titer Glo, Promega. MNFS60 (murine AML cells) were seeded in TC treated 96-well plates at a density of 5,000 cells per well in RPMI-1640, 10% FBS, and 1% Penicillin Streptomycin prior to addition of compound. Test compounds were serially diluted (3 fold) in DMSO to 500× the final concentration. For each concentration of test compound, 2 μl (500×) aliquots of compound or 100% DMSO (control) were diluted in 500 μl of culture medium that contained 2× final concentration of growth factor MCSF for 2× concentration and then diluted 1× on the cells. Final concentration of MCSF is 10 ng/mL. Cells were incubated for 72 hrs at 37° C., 5% CO2. After the incubation 100 μl Cell Titer Glo is added to each well to determine viable cells. The assay was performed according to the manufacturer's instruction (Promega Corporation, Madison, Wis. USA). Each experimental condition was performed in triplicate. Raw data was imported in Abase and EC50s calculated with XL-fit data analysis software: Relative light units of wells that contained cells without MCSF in the media and as a consequence didn't grow were defined as 100% inhibited.

PDGFRb = target: T1, PDGFRb (Homo sapiens, UniProt P09619); experiment: PDGFRb kinase in vitro biochemical assay (alphascreen); details: tested at about 1 μM; read-out: PDGF RK BETA percent inhibition
T1 construct: The kinase domain of PDGFRβ was assayed in 50 mM Hepes; purchased Invitrogen P3082
T1 sequence (P09619 600-962 limits assumed): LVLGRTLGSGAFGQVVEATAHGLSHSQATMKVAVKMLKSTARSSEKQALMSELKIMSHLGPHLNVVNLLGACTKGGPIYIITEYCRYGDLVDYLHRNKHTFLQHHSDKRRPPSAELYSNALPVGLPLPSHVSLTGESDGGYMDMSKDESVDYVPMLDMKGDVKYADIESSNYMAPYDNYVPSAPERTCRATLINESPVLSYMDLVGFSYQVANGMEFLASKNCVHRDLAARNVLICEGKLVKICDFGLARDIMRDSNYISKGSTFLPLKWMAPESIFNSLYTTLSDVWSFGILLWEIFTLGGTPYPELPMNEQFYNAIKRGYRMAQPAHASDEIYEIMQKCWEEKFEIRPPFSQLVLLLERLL

[2] = target: T2, cytoplasmic domain of the human CSF-1R (Homo sapiens, UniProt P07333); experiment: In vitro kinase assay for CSF-1R (AlphaScreen); type: biochemical; details: tested at about 1 μM; read-out: CSF1RK 1 percent inhibition
T2 construct: Recombinant protein corresponding to the cytoplasmic domain of the human CSF-1R; purchased Invitrogen Corporation, Carlsbad, Calif; PV3249
T2 sequence (P07333 539-972 limits assumed): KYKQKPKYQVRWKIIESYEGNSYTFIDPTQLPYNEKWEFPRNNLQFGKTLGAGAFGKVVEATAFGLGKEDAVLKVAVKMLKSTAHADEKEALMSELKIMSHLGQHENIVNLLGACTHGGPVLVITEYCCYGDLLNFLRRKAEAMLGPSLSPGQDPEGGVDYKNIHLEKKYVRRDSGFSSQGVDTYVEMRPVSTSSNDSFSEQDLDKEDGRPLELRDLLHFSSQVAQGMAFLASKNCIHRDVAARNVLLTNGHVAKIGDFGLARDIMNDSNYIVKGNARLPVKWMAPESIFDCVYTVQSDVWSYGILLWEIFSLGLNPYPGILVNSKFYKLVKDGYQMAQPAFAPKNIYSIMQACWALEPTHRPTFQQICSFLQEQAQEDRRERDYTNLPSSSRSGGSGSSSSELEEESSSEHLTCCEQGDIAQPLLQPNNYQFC
Outline: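 Recombinant CSF-1R cytoplasmic domain (4 nM) phosphorylated biotinylated peptide (0.05 μM) at 1.0 μM ATP in HEPES with Mg2+/Mn2+, 2 h at room temperature, compounds from 25 μM in 3-fold steps. AlphaScreen anti-phosphotyrosine PT66 detection; IC50 by non-linear regression.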

cKIT = target: T3, cKIT (Homo sapiens, UniProt P10721); experiment: cKIT kinase in vitro biochemical assay (alphascreen); details: tested at about 1 μM; read-out: CKIT percent inhibition
T3 construct: The kinase domain of cKIT was assayed in 50 mM Hepes; purchased Upstate 14-559
T3 sequence (P10721 589-937 limits assumed): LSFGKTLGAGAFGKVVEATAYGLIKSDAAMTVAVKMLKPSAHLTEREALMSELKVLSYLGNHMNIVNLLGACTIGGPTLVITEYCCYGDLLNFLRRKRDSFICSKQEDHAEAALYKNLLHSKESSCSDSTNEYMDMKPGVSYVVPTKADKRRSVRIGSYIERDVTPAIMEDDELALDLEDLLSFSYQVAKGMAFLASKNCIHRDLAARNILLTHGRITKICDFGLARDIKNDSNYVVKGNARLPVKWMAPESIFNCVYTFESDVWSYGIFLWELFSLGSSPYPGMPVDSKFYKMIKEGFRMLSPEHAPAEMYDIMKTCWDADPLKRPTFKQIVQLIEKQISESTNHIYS

Row | SMILES | inhibition at 1 µM (PDGFRb) | inhibition at 1 µM [2] | inhibition at 1 µM (cKIT) | inhibition at 1 µM [1]
1 | Cn1cc(-c2nccc(Oc3ccc4nc(NCC5CCCCC5)sc4c3)n2)cn1 [Compound 21, N-(cyclohexylmethyl)-6-(2-(1-methyl-1H-pyrazol-4-yl)pyrimidin-4-yloxy) benzo[d]thiazol-2-amine] | 92% | 100% | 100% | 100%
2 | Cn1cc(-c2cc(Oc3ccc4nc(N[C@@H]5CCCC[C@H]5O)sc4c3)ncn2)cn1 [Compound 22, (1R,2R)-2-(6-(6-(1-methyl-1H-pyrazol-4-yl)pyrimidin-4-yloxy)benzo[d]thiazol-2-ylamino) cyclohexanol] | 11% | 100% | 29% | 100%
3 | Cn1cc(-c2nccc(Oc3ccc4nc(N[C@@H]5CCCC[C@H]5O)sc4c3)n2)cn1 [Compound 23, (1R,2R)-2-(6-(2-(1-methyl-1H-pyrazol-4-yl)pyrimidin-4-yloxy)benzo[d]thiazol-2-ylamino) cyclohexanol] | 7% | 100% | 19% | 100%
4 | c1cc(-n2cncn2)cc(Oc2ccc3nc(NCC4CCCCC4)sc3c2)n1 [Compound 24, 6-(4-(1H-1,2,4-triazol-1-yl)pyridin-2-yloxy)-N-(cyclohexylmethyl)benzo[d]thiazol-2-amine] | 9% | 44% | 7% | 0%
5 | Cn1nccc1-c1cc(Oc2ccc3nc(N[C@@H]4CCCC[C@H]4O)sc3c2)ncn1 [Compound 25, (1R,2R)-2-(6-(6-(1-methyl-1H-pyrazol-5-yl)pyrimidin-4-yloxy)benzo[d]thiazol-2-ylamino) cyclohexanol] | 0% | 69% | 22% | 14%
6 | Cn1nccc1-c1nccc(Oc2ccc3nc(N[C@@H]4CCCC[C@H]4O)sc3c2)n1 [Compound 26, (1R,2R)-2-(6-(2-(1-methyl-1H-pyrazol-5-yl)pyrimidin-4-yloxy)benzo[d]thiazol-2-ylamino) cyclohexanol] | 20% | 100% | 24% | 19%
7 | Nc1ccc(-c2nccc(Oc3ccc4nc(N[C@@H]5CCCC[C@H]5O)sc4c3)n2)cn1 [Compound 29, (1R,2R)-2-(6-(2-(6-aminopyridin-3-yl)pyrimidin-4-yloxy)benzo[d]thiazol-2-ylamino)cyclohexanol] | 11% | 100% | 13% | 76%
8 | C[C@H](Nc1nc2ccc(Oc3ccnc(-c4cnn(C)c4)n3)cc2s1)C1CCCCC1 [Compound 30, (S)-N-(1-cyclohexylethyl)-6-(2-(1-methyl-1H-pyrazol-4-yl)pyrimidin-4-yloxy)benzo[d] thiazol-2-amine] | 21% | 100% | 24% | 100%
9 | C[C@H](Nc1nc2ccc(Oc3ccnc(-c4ccc(N)nc4)n3)cc2s1)C1CCCCC1 [Compound 33, (S)-6-(2-(6-aminopyridin-3-yl)pyrimidin-4-yloxy)-N-(1-cyclohexylethyl) benzo[d]thiazol-2-amine] | 22% | 100% | 32% | 78%
10 | C[C@H](Nc1nc2ccc(Oc3ccnc(-c4ccnn4C)n3)cc2s1)C1CCCCC1 [Compound 34, (S)-N-(1-cyclohexylethyl)-6-(2-(1-methyl-1H-pyrazol-5-yl)pyrimidin-4-yloxy)benzo[d]thiazol-2-amine] | 6% | 100% | 21% | 19%
11 | c1nc(Oc2ccc3nc(NCC4CCCCC4)sc3c2)c2ccsc2n1 [Compound 37, N-(cyclohexylmethyl)-6-(thieno[2,3-d]pyrimidin-4-yloxy) benzo[d]thiazol-2-amine] | 39% | 100% | 75% | 0%
12 | C[C@H](Nc1nc2ccc(Oc3cc(-n4cncn4)ncn3)cc2s1)C1CCCCC1 [Compound 41, (S)-6-(6-(1H-1,2,4-triazol-1-yl)pyrimidin-4-yloxy)-N-(1-cyclohexylethyl) benzo[d]thiazol-2-amine] | 0% | 99% | 28% | 0%

Further lines, with some results ahead:

Row | inhibition at 1 µM (PDGFRb) | inhibition at 1 µM [2] | inhibition at 1 µM (cKIT) | SMILES | inhibition at 1 µM [1]
13 | 19% | 99% | 14% | Cn1ncc2c(Oc3ccc4nc(NCC5CCCCC5)sc4c3)ncnc21 [Compound 44, N-(cyclohexylmethyl)-6-(1-methyl-1H-pyrazolo[3,4-d]pyrimidin-4-yloxy)benzo[d]thiazol-2-amine] | 0%
14 | 12% | 100% | 60% | Cn1cc(-c2cncc(Oc3ccc4nc(N[C@@H]5CCCC[C@H]5O)sc4c3)c2)cn1 [Compound 46, (1R,2R)-2-(6-(5-(1-methyl-1H-pyrazol-4-yl)pyridin-3-yloxy)benzo[d]thiazol-2-ylamino)cyclohexanol] | 100%
15 | 1% | 100% | 63% | Nc1ccc(-c2cncc(Oc3ccc4nc(N[C@@H]5CCCC[C@H]5O)sc4c3)c2)cn1 [Compound 47, (1R,2R)-2-(6-(6′-amino-3,3′-bipyridin-5-yloxy)benzo[d]thiazol-2-ylamino) cyclohexanol] | 100%
16 | 8% | 96% | 22% | CNC(=O)c1ccc(Oc2ccc3nc(NCC4CCCCC4)sc3c2)cn1 [Compound 48, 5-(2-(cyclohexylmethylamino)benzo [d]thiazol-6-yloxy)-N-methylpicolinamide] | 0%
17 | 14% | 97% | 32% | CNC(=O)c1cncc(Oc2ccc3nc(N[C@@H](C)C4CCCCC4)sc3c2)n1 [Compound 51, (S)-6-(2-(1-cyclohexylethylamino)benzo[d]thiazol-6-yloxy)-N-methylpyrazine-2-carboxamide] | 3%
18 | 13% | 98% | 12% | CNC(=O)c1ccc(Oc2ccc3nc(N[C@@H](C)C4CCCCC4)sc3c2)cn1 [Compound 53, (S)-5-(2-(1-cyclohexylethylamino)benzo[d]thiazol-6-yloxy)-N-methylpicolinamide] | 13%
19 | 13% | 100% | 64% | O[C@@H]1CCCC[C@H]1Nc1nc2ccc(Oc3cncc(-c4cncs4)c3)cc2s1 [Compound 70, (1R,2R)-2-(6-(5-(thiazol-5-yl)pyridin-3-yloxy)benzo[d]thiazol-2-ylamino) cyclohexanol] | 100%
20 | 3% | 99% | 44% | N#Cc1ccc(-c2cncc(Oc3ccc4nc(N[C@@H]5CCCC[C@H]5O)sc4c3)c2)cn1 [Compound 73, 5′-(2-((1R,2R)-2-hydroxycyclohexylamino)benzo[d]thiazol-6-yloxy)-3,3′-bipyridine-6-carbonitrile] | 23%
21 | 1% | 100% | 59% | COc1cncc(-c2cncc(Oc3ccc4nc(N[C@@H]5CCCC[C@H]5O)sc4c3)c2)c1 [Compound 74, (1R,2R)-2-(6-(5′-methoxy-3,3′-bipyridin-5-yloxy)benzo [d]thiazol-2-ylamino) cyclohexanol] | 100%

Reference: patent US8293769B2, “CSF-1R inhibitors, compositions, and methods of use” (Novartis AG, priority 2008, dated 2012)
